CSCC1CN(/N=C/c2ccc([N+](=O)[O-])o2)C(=O)O1 (configuration not stated)
solubility (mole fraction)
Details | 293.15 K | 298.15 K | 303.15 K | 308.15 K | 313.15 K | 318.15 K | 323.15 K | 328.15 K | 333.15 K
in DMF | 0.012 | 0.015 | 0.0186 | 0.0229 | 0.0279 | 0.0338 | 0.0405 | 0.0483 | 0.0571
in DMSO | 0.0172 | 0.021 | 0.0255 | 0.0307 | 0.0367 | 0.0435 | 0.0511 | 0.0596 | 0.069
in THF | 0.000618 | 0.000801 | 0.00103 | 0.00131 | 0.00166 | 0.00209 | 0.0026 | 0.00322 | 0.00397
in acetic acid | 0.000206 | 0.000275 | 0.000364 | 0.000479 | 0.000624 | 0.000808 | 0.00104 | 0.00133 | 0.00168
in acetone | 0.00109 | 0.0014 | 0.00178 | 0.00225 | 0.00281 | 0.0035 | 0.00432 | 0.0053 | –
in acetonitrile | 0.00235 | 0.00296 | 0.00369 | 0.00457 | 0.00562 | 0.00687 | 0.00835 | 0.0101 | 0.0121
in dichloromethane | 0.00151 | 0.00192 | 0.00242 | 0.00303 | – | – | – | – | –
in ethanol | 1.98e-05 | 2.7e-05 | 3.65e-05 | 4.89e-05 | 6.49e-05 | 8.54e-05 | 0.000111 | 0.000144 | 0.000185
in ethyl acetate | 0.000224 | 0.000297 | 0.000389 | 0.000505 | 0.000651 | 0.000832 | 0.00106 | 0.00133 | 0.00167
in isopropanol | 1.45e-05 | 2e-05 | 2.73e-05 | 3.69e-05 | 4.94e-05 | 6.56e-05 | 8.63e-05 | 0.000113 | 0.000146
in methanol | 3.84e-05 | 5.31e-05 | 7.26e-05 | 9.85e-05 | 0.000132 | 0.000177 | 0.000234 | 0.000308 | 0.000403
in water | 1.53e-05 | 2.06e-05 | 2.75e-05 | 3.63e-05 | 4.74e-05 | 6.16e-05 | 7.93e-05 | 0.000101 | 0.000129

— BigSolDB 2.1
